According to patent US8258114B2, “Modulation of glucose-6-phosphatase translocase expression” (Isis Pharmaceuticals, Inc., priority 2004, dated 2012):
Oligonucleotides are written 5' to 3', each unit as a sugar letter and its base; * is a phosphorothioate linkage, no mark a phosphodiester; rarer units and linkages stand in square brackets, end groups in braces. Plain capitals give the bases only. e = 2'-O-(2-methoxyethyl) (MOE); [5mC] = 5-methylcytosine; d = 2'-deoxy (DNA)

Legend:
Format in all cases: cell-based
[1] = tested on: human glucose-6-phosphatase translocase mRNA; test: Antisense inhibition of human glucose-6-phosphatase translocase mRNA in T-24 cells, real-time PCR (Table 4); conditions: 100 nM oligonucleotide, LIPOFECTIN, mRNA by real-time PCR
Protocol: The transitional cell bladder carcinoma cell line T-24 was obtained from the American Type Culture Collection (ATCC) (Manassas, Va.). T-24 cells were routinely cultured in complete McCoy's 5A basal media (Invitrogen Life Technologies, Carlsbad, Calif.) supplemented with 10% fetal bovine serum (Invitrogen Life Technologies, Carlsbad, Calif.). Cells were routinely passaged by trypsinization and dilution when they reached approximately 90% confluence. Cells were seeded into 96-well plates (Falcon-Primaria #3872) at a density of approximately 4000-6000 cells/well for use in oligomeric compound transfection experiments. When cells reached 65-75% confluency, they were treated with oligonucleotide. […] This transfection mixture was incubated at room temperature for approximately 0.5 hours. For cells grown in 96-well plates, wells were washed once with 100 μL OPTI-MEMTM-1 and then treated with 130 μL of the transfection mixture. Cells grown in 24-well plates or other standard tissue culture plates are treated similarly, using appropriate volumes of medium and oligonucleotide. Cells are treated and data are obtained in duplicate or triplicate. After approximately 4-7 hours of treatment at 37° C., the medium containing the transfection mixture was replaced with fresh culture medium. Cells were harvested 16-24 hours after oligonucleotide treatment. […] Prior to quantitative PCR analysis, primer-probe sets specific to the target gene being measured were evaluated for their ability to be “multiplexed” with a GAPDH amplification reaction. After isolation the RNA is subjected to sequential reverse transcriptase (RT) reaction and real-time PCR, both of which are performed in the same well. RT and PCR reagents were obtained from Invitrogen Life Technologies (Carlsbad, Calif.). […] The RT reaction was carried out by incubation for 30 minutes at 48° C. Following a 10 minute incubation at 95° C. to activate the PLATINUM® Taq, 40 cycles of a two-step PCR protocol were carried out: 95° C. for 15 seconds (denaturation) followed by 60° C. for 1.5 minutes (annealing/extension). Gene target quantities obtained by RT, real-time PCR were normalized using either the expression level of GAPDH, a gene whose expression is constant, or by quantifying total RNA using RiboGreenTM (Molecular Probes, Inc. Eugene, Oreg.). GAPDH expression was quantified by RT, real-time PCR, by being run simultaneously with the target, multiplexing, or separately. Total RNA was quantified using RiboGreenTM RNA quantification reagent (Molecular Probes, Inc. Eugene, Oreg.). A series of oligomeric compounds was designed to target different regions of human glucose-6-phosphatase translocase, using published sequences cited in Table 1. All compounds in Table 4 are chimeric oligonucleotides (“gapmers”) 20 nucleotides in length, composed of a central “gap” region consisting of 10 2'-deoxynucleotides, which is flanked on both sides ([NT]) by five-nucleotide “wings”. The wings are composed of 2'-O-(2-methoxyethyl) nucleotides, also known as 2'-MOE nucleotides. The internucleoside (backbone) linkages are phosphorothioate throughout the oligonucleotide. All cytidine residues are 5-methylcytidines. The compounds were analyzed for their effect on gene target mRNA levels by quantitative real-time PCR as described in other examples herein, using the following primer-probe set designed to hybridize to human glucose-6-phosphatase translocase: Forward primer: [NT] (incorporated herein as SEQ ID NO: 24) Reverse primer: [NT] (incorporated herein as SEQ ID NO: 25) And the PCR probe was: […] (incorporated herein as SEQ ID NO: 26), where FAM is the fluorescent dye and TAMRA is the quencher dye. Data are from experiments in which T-24 cells were treated with 100 nM of the antisense oligonucleotides of the present invention using LIPOFECTINTM. A reduction in expression is expressed as percent inhibition in Table 4. If present, “N.D.” indicates “not determined”. The control oligomeric compound used was SEQ ID NO: 11. […]

[2] = tested on: human glucose-6-phosphatase translocase mRNA; test: Antisense inhibition of human glucose-6-phosphatase translocase mRNA in HepG2 cells (Table 11); parameters: concentration or dose not given beside the values; conditions: LIPOFECTIN, mRNA by real-time PCR
Protocol: The human hepatoblastoma cell line HepG2 was obtained from the American Type Culture Collection (Manassas, Va.). HepG2 cells were routinely cultured in Eagle's MEM supplemented with 10% fetal bovine serum, 1 mM non-essential amino acids, and 1 mM sodium pyruvate (Invitrogen Life Technologies, Carlsbad, Calif.). Cells were routinely passaged by trypsinization and dilution when they reached approximately 90% confluence. Multiwell culture plates are prepared for cell culture by coating with a 1:100 dilution of type 1 rat tail collagen (BD Biosciences, Bedford, Mass.) in phosphate-buffered saline. The collagen-containing plates were incubated at 37° C. for approximately 1 hour, after which the collagen was removed and the wells were washed twice with phosphate-buffered saline. Cells were seeded into 96-well plates (Falcon-Primaria #353872, BD Biosciences, Bedford, Mass.) at a density of approximately 8,000 cells/well for use in oligomeric compound transfection experiments.
When cells reached 65-75% confluency, they were treated with oligonucleotide. Oligonucleotide was mixed with LIPOFECTIN™ Invitrogen Life Technologies, Carlsbad, Calif.) in Opti-MEM™-1 reduced serum medium (Invitrogen Life Technologies, Carlsbad, Calif.) to achieve the desired concentration of oligonucleotide and a LIPOFECTIN™ concentration of 2.5 or 3 μg/mL per 100 nM oligonucleotide. This transfection mixture was incubated at room temperature for approximately 0.5 hours. For cells grown in 96-well plates, wells were washed once with 100 μL OPTI-MEM™-1 and then treated with 130 μL of the transfection mixture. Cells grown in 24-well plates or other standard tissue culture plates are treated similarly, using appropriate volumes of medium and oligonucleotide. Cells are treated and data are obtained in duplicate or triplicate. After approximately 4-7 hours of treatment at 37° C., the medium containing the transfection mixture was replaced with fresh culture medium. Cells were harvested 16-24 hours after oligonucleotide treatment.
Quantitation of glucose 6-phosphatase translocase mRNA levels was accomplished by real-time quantitative PCR using the ABI PRISM™ 7600, 7700, or 7900 Sequence Detection System (PE-Applied Biosystems, Foster City, Calif.) according to manufacturer's instructions.
Prior to quantitative PCR analysis, primer-probe sets specific to the target gene being measured were evaluated for their ability to be “multiplexed” with a GAPDH amplification reaction. After isolation the RNA is subjected to sequential reverse transcriptase (RT) reaction and real-time PCR, both of which are performed in the same well. RT and PCR reagents were obtained from Invitrogen Life Technologies (Carlsbad, Calif.). […] The RT reaction was carried out by incubation for 30 minutes at 48° C. Following a 10 minute incubation at 95° C. to activate the PLATINUM® Taq, 40 cycles of a two-step PCR protocol were carried out: 95° C. for 15 seconds (denaturation) followed by 60° C. for 1.5 minutes (annealing/extension).
Gene target quantities obtained by RT, real-time PCR were normalized using either the expression level of GAPDH, a gene whose expression is constant, or by quantifying total RNA using RiboGreen™ (Molecular Probes, Inc. Eugene, Oreg.). GAPDH expression was quantified by RT, real-time PCR, by being run simultaneously with the target, multiplexing, or separately. Total RNA was quantified using RiboGreen™ RNA quantification reagent (Molecular Probes, Inc. Eugene, Oreg.).
A series of oligomeric compounds was designed to target different regions of human glucose-6-phosphatase translocase, using published sequences cited in Table 1. All compounds in Table 4 are chimeric oligonucleotides (“gapmers”) 20 nucleotides in length, composed of a central “gap” region consisting of 10 2′-deoxynucleotides, which is flanked on both sides (5′ and 3′) by five-nucleotide “wings”. The wings are composed of 2′-O-(2-methoxyethyl) nucleotides, also known as 2′-MOE nucleotides. […]

[3] = tested on: mouse glucose-6-phosphatase translocase mRNA; test: Antisense inhibition of mouse glucose-6-phosphatase translocase mRNA in primary mouse hepatocytes, 150 nM, LIPOFECTIN (Table 22); conditions: real-time PCR
Procedure, shortened: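 Primary CD-1 mouse hepatocytes at 65-75% confluency transfected ~4-7 h at 37° C with 150 nM 5-10-5 2′-MOE gapmer phosphorothioate oligonucleotides plus LIPOFECTIN (2.5 or 3 μg/mL per 100 nM). Harvested 16-24 h post-treatment; mRNA by real-time RT-PCR, normalized to GAPDH or RiboGreen total RNA, expressed as percent inhibition.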

AACCACACACAGTGCCCCAG (eA*eA*e[5mC]*e[5mC]*eA*d[5mC]*dA*d[5mC]*dA*d[5mC]*dA*dG*dT*dG*d[5mC]*e[5mC]*e[5mC]*e[5mC]*eA*eG; antisense) [ISIS 194853]
% Inhib [1]: 35%

AGATAGGGCCAGCGTGCTGC (eA*eG*eA*eT*eA*dG*dG*dG*d[5mC]*d[5mC]*dA*dG*d[5mC]*dG*dT*eG*e[5mC]*eT*eG*e[5mC]; antisense) [ISIS 194832]
% Inhib [1]: 55%

AGGCAAAGAATATGTTGACC (eA*eG*eG*e[5mC]*eA*dA*dA*dG*dA*dA*dT*dA*dT*dG*dT*eT*eG*eA*e[5mC]*e[5mC]; antisense) [ISIS 194830]
% Inhib [1]: 68%

ATGGCGAGGGTTCCCGTAGT (eA*eT*eG*eG*e[5mC]*dG*dA*dG*dG*dG*dT*dT*d[5mC]*d[5mC]*d[5mC]*eG*eT*eA*eG*eT; antisense) [ISIS 194831]
% Inhib [1]: 54%

CACCTATATCCAACTGCGCC (e[5mC]*eA*e[5mC]*e[5mC]*eT*dA*dT*dA*dT*d[5mC]*d[5mC]*dA*dA*d[5mC]*dT*eG*e[5mC]*eG*e[5mC]*e[5mC]; antisense) [ISIS 194837]
% Inhib [1]: 81%

CAGGGCACTCATGTAGGAGC (e[5mC]*eA*eG*eG*eG*d[5mC]*dA*d[5mC]*dT*d[5mC]*dA*dT*dG*dT*dA*eG*eG*eA*eG*e[5mC]; antisense) [ISIS 194840]
% Inhib [1]: 51%

CAGTTCCCAGATCTGCTGAG (e[5mC]*eA*eG*eT*eT*d[5mC]*d[5mC]*d[5mC]*dA*dG*dA*dT*d[5mC]*dT*dG*e[5mC]*eT*eG*eA*eG; antisense) [ISIS 194851]
% Inhib [1]: 73%

CAGTTCCTGCTTGCCGCTCT (e[5mC]*eA*eG*eT*eT*d[5mC]*d[5mC]*dT*dG*d[5mC]*dT*dT*dG*d[5mC]*d[5mC]*eG*e[5mC]*eT*e[5mC]*eT; antisense) [ISIS 194856]
% Inhib [1]: 56%

CATTAGTGCCCTGCAGCTGC (e[5mC]*eA*eT*eT*eA*dG*dT*dG*d[5mC]*d[5mC]*d[5mC]*dT*dG*d[5mC]*dA*eG*e[5mC]*eT*eG*e[5mC]; antisense) [ISIS 194828]
% Inhib [1]: 73%

CCAGGCAGGCCCCTCCTTTT (e[5mC]*e[5mC]*eA*eG*eG*d[5mC]*dA*dG*dG*d[5mC]*d[5mC]*d[5mC]*d[5mC]*dT*d[5mC]*e[5mC]*eT*eT*eT*eT; antisense) [ISIS 194858]
% Inhib [1]: 71%

CCTGCTTGCCGCTCTCACAG (e[5mC]*e[5mC]*eT*eG*e[5mC]*dT*dT*dG*d[5mC]*d[5mC]*dG*d[5mC]*dT*d[5mC]*dT*e[5mC]*eA*e[5mC]*eA*eG; antisense) [ISIS 194844]
% Inhib [1]: 73%

CTGTAGCCCCCAAACATGGC (e[5mC]*eT*eG*eT*eA*dG*d[5mC]*d[5mC]*d[5mC]*d[5mC]*d[5mC]*dA*dA*dA*d[5mC]*eA*eT*eG*eG*e[5mC]; antisense) [ISIS 194835]
% Inhib [1]: 59%

CTTGGCAATGGTGCTGAAGG (e[5mC]*eT*eT*eG*eG*d[5mC]*dA*dA*dT*dG*dG*dT*dG*d[5mC]*dT*eG*eA*eA*eG*eG; antisense) [ISIS 194847]
% Inhib [1]: 66%

GATAGCCTCACTTCAGGTGG (eG*eA*eT*eA*eG*d[5mC]*d[5mC]*dT*d[5mC]*dA*d[5mC]*dT*dT*d[5mC]*dA*eG*eG*eT*eG*eG; antisense) [ISIS 194836]
% Inhib [1]: 58%

GATGAACCCCAAATCATCCT (eG*eA*eT*eG*eA*dA*d[5mC]*d[5mC]*d[5mC]*d[5mC]*dA*dA*dA*dT*d[5mC]*eA*eT*e[5mC]*e[5mC]*eT; antisense) [ISIS 194827]
% Inhib [1]: 55%

GCTGACTGTCCTTTCTCCTG (eG*e[5mC]*eT*eG*eA*d[5mC]*dT*dG*dT*d[5mC]*d[5mC]*dT*dT*dT*d[5mC]*eT*e[5mC]*e[5mC]*eT*eG; antisense) [ISIS 194859]
% Inhib [1]: 62%

GCTGCGCCAGCTGTAGCTCT (eG*e[5mC]*eT*eG*e[5mC]*dG*d[5mC]*d[5mC]*dA*dG*d[5mC]*dT*dG*dT*dA*eG*e[5mC]*eT*e[5mC]*eT; antisense) [ISIS 194843]
% Inhib [1]: 66%

GGACTCTCTTCACTCAGCCT (eG*eG*eA*e[5mC]*eT*d[5mC]*dT*d[5mC]*dT*dT*d[5mC]*dA*d[5mC]*dT*d[5mC]*eA*eG*e[5mC]*e[5mC]*eT; antisense) [ISIS 194825]
% Inhib [1]: 73%

TGGGCTGCCATGGTAGAAAA (eT*eG*eG*eG*e[5mC]*dT*dG*d[5mC]*d[5mC]*dA*dT*dG*dG*dT*dA*eG*eA*eA*eA*eA; antisense) [ISIS 145652]
% Inhib [2]: 50%
% Inhib of mouse glucose-6-phosphatase translocase mRNA levels [3]: 36%

TTGGCAATGGTGCTGAAGGG (eT*eT*eG*eG*e[5mC]*dA*dA*dT*dG*dG*dT*dG*d[5mC]*dT*dG*eA*eA*eG*eG*eG; antisense) [ISIS 145700]
% Inhib [2]: 24%
% Inhib of mouse glucose-6-phosphatase translocase mRNA levels [3]: 1%
